Assay results reported in patent publication US4552765A, “Aletheine derivatives” (Santen Pharmaceutical Co., Ltd., priority 1982, dated 1985).

Tested on: CCl4-induced liver damage
Experiment: effect on CCl4-induced liver damage in rats (serum transaminase s-GOT and s-GPT)
Assay type: in vivo, Male wistar rats
Conditions: for serum transaminase s-GPT / serum transaminase s-GOT / s-GPT (inhibitory %) / s-GOT (inhibitory %): 300 mg/Kg orally, 60 min before CCl4 0.25 ml/Kg i.p., 24 h after CCl4; for serum transaminase s-GPT / serum transaminase s-GOT: mean ± standard deviation; for effect on liver damage: result in words
Text: Generally, the effect of a certain compound on liver damage is examined by administering it to experimental animals before a liver damage inducer such as carbon tetrachloride, thioacetamide, bromobenzene, paracetamol, D-galactosamine, etc. Carbon tetrachloride (CCl4)-induced liver damage is commonly used as the model. The mechanism to induce liver damage is presumed as follows (Biochemical Pharmacology 21, 49 (1972), ibid., 25, 2163 (1976)). In this invention, the effect of the compounds were examined against CCl4 -induced liver damage using serum transaminase activities (s-GOT and s-GPT) as a parameter. Male wistar rats (6 animals per group), weighing about 170-200 g, fasted for 17 hours, were used in the experiments. Test compounds were given orally at a dose of 300 mg/Kg, and 60 minutes later CCl4 was administered intraperitoneally at a dose of 0.25 ml/Kg (5 ml/Kg as a 5%(v/v)solution in olive oil). As the control, olive oil only was given intraperitoneally at a dose of 5 ml/Kg. All animals were killed 24 hours after CCl4 administration and their s-GOT and s-GPT activities were determined.

[1] = Table I, vs control 11460 ± 1490
[2] = Table II, vs control 6400 ± 2590
[3] = Table II, vs control 13950 ± 4030

Row | Structure (SMILES) | serum transaminase s-GPT (Table I, control 5100 ± 405) [Karmen unit/ml] | serum transaminase s-GOT (Table I, control 11460 ± 1490) [Karmen unit/ml] | s-GPT (inhibitory %) (Table I, vs control 5100 ± 405) [%] | s-GOT (inhibitory %) [1] [%] | serum transaminase s-GPT (Table II, control 6400 ± 2590) [Karmen unit/ml] | serum transaminase s-GOT (Table II, control 13950 ± 4030) [Karmen unit/ml] | s-GPT (inhibitory %) [2] [%] | s-GOT (inhibitory %) [3] [%] | effect on liver damage
1 | O=C(CCNC(=O)c1ccccc1)NCCSC(=O)c1ccccc1 [compound No. 3, 3-Benzoylamino-N-(2-benzoylthioethyl)propionamide] | 2440 ± 960 | 6150 ± 2990 | 52 | 46 | – | – | – | – | –
2 | Cl.NCCC(=O)NCCS [compound No. 4, 3-amino-N-(2-mercaptoethyl)propionamide hydrochloride] | – | – | – | – | 1990 ± 1010 | 4690 ± 2490 | 69 | 67 | –
3 | CC(=O)SCCNC(=O)CCNC(=O)OCc1ccccc1 [compound No. 1, N-(2-Acetylthioethyl)-3-(benzyloxycarbonylamino)propionamide] | 2590 ± 731 | 5250 ± 1330 | 49 | 54 | – | – | – | – | –
4 | CC(=O)NCCC(=O)NCCSC(C)=O [compound No. 6, 3acetylamino-N--(2acetylthioethyl)propionamide] | – | – | – | – | 1730 ± 800 | 3370 ± 1360 | 73 | 76 | superior effect on liver-damage
5 | NCCC(=O)NCCS [β-aletheine, N-β-Alanyl-2-mercaptoethylamine] | – | – | – | – | – | – | – | – | excellent suppressive effect on liver damage
6 | O=C(CCNC(=O)OCc1ccccc1)NCCS [compound No. 5, 3-(benzyloxycarbonylamino)-N-(2-mercaptoethyl)propionamide] | – | – | – | – | 1900 ± 1640 | 4450 ± 4430 | 71 | 69 | superior effect on liver-damage
7 | CCC(=O)SCCNC(=O)CCNC(=O)OCc1ccccc1 [compound No. 2, 3-(Benzyloxycarbonylamino)-N-(2-propionylthioethyl)-propionamide] | 1720 ± 613 | 3550 ± 1150 | 66 | 69 | – | – | – | – | –
